Patent US10435399B2, “HDAC6 inhibitory heterocyclic compound” (TAKEDA PHARMACEUTICAL COMPANY LIMITED, priority 2017, dated 2019)

Each compound was assayed against T1, HDAC6 enzyme (Homo sapiens, UniProt Q9UBN7) (assay: HDAC6 enzyme inhibitory activity (HDAC-Glo I/II Assay kit)). Details: 10 μM; wells without enzyme = 100% inhibition; read-out: HDAC6 inhibitory rate (%) (10 μM).
T1 construct: transducing full length HDAC6 gene into Sf-9 insect cells; GST; purchased SignalChem; host or cells: Sf-9 insect cells
T1 sequence (Q9UBN7 1-1215): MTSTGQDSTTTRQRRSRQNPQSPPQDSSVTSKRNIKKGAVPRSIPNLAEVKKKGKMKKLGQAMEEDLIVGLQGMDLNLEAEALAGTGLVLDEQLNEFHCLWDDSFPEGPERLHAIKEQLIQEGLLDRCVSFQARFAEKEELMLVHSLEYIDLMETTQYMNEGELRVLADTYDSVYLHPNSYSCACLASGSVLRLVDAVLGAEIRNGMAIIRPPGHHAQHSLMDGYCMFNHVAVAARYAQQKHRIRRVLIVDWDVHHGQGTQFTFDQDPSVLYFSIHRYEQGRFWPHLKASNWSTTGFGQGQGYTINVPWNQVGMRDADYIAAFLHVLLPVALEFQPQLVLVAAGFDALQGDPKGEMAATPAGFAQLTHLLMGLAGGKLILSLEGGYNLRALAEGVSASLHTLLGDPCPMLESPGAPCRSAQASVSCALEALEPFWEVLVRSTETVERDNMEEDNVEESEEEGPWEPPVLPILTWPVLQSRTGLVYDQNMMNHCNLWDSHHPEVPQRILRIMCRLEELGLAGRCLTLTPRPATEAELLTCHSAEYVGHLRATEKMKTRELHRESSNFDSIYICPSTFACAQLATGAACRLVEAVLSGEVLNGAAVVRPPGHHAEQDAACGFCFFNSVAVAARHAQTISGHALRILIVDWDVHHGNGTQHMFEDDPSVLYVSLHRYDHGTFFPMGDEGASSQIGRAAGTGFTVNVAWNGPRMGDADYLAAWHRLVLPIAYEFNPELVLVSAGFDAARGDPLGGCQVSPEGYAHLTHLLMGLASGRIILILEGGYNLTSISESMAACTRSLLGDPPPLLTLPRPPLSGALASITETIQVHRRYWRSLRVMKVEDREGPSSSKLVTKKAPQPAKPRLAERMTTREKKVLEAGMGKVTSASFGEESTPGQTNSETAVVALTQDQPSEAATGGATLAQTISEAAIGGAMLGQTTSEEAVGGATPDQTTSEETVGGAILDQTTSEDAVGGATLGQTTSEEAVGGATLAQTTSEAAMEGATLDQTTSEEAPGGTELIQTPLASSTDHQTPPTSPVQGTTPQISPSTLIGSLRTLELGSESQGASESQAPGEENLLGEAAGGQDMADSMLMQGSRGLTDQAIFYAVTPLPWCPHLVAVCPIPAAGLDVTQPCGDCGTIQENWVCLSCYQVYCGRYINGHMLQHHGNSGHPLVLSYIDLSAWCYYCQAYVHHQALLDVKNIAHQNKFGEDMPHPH
Assay type: biochemical
In short: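 Test compound is preincubated 60 min at RT with full-length insect-cell HDAC6 in Tris-HCl pH 7.5 with 135 mM NaCl and 1 mM MgCl2. A 20 min room-temperature HDAC-Glo reaction follows, with luminescent read-out.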

| SMILES | inhibition at 10 µM [%] |
| --- | --- |
| N[C@@H]1CCCC[C@H]1N1Cc2ncc(-c3nnc(C(F)F)o3)cc2C1=O [Example 231, 6-((1R,2R)-2-aminocyclohexyl)-3-(5-(difluoromethyl)-1,3,4-oxadiazol-2-yl)-6,7-dihydro-5H-pyrrolo[3,4-b]pyridin-5-one] | 98 |
| O=C(O[C@@H]1CCCC[C@H]1N1Cc2ccc(-c3nnc(C(F)F)o3)cc2C1=O)N1CCC1 [Example 232, (1R,2R)-2-(6-(5-(difluoromethyl)-1,3,4-oxadiazol-2-yl)-1-oxo-1,3-dihydro-2H-isoindol-2-yl)-cyclohexyl azetidine-1-carboxylate] | 98 |
| O=C(O[C@@H]1CCCC[C@H]1N1Cc2ccc(-c3nnc(C(F)F)o3)cc2C1=O)N1CCCC1 [Example 233, (1R,2R)-2-(6-(5-(difluoromethyl)-1,3,4-oxadiazol-2-yl)-1-oxo-1,3-dihydro-2H-isoindol-2-yl)-cyclohexyl pyrrolidine-1-carboxylate] | 100 |
| O=C1c2cc(-c3nnc(C(F)F)o3)ccc2CN1CCOCc1ccccc1 [Example 234, 2-(2-(benzyloxy)ethyl)-6-(5-(difluoromethyl)-1,3,4-oxadiazol-2-yl)isoindolin-1-one] | 98 |
| O=C1c2cc(-c3nnc(C(F)F)o3)cnc2CN1[C@@H]1CCCC[C@H]1NC(=O)C1(C(F)F)CC1 [Example 235, 1-(difluoromethyl)-N-((1R,2R)-2-(3-(5-(difluoromethyl)-1,3,4-oxadiazol-2-yl)-5-oxo-5,7-dihydro-6H-pyrrolo[3,4-b]pyridin-6-yl)-cyclohexyl)cyclopropane-carboxamide] | 99 |
| O=C1c2cc(-c3nnc(C(F)F)o3)cc(F)c2CN1[C@@H]1CCCC[C@H]1NC(=O)C1(C(F)F)CC1 [Example 236, 1-(difluoromethyl)-N-((1R,2R)-2-(6-(5-(difluoromethyl)-1,3,4-oxadiazol-2-yl)-4-fluoro-1-oxo-1,3-dihydro-2H-isoindol-2-yl)-cyclohexyl)cyclopropanecarbox-amide] | 98 |
| O=C1c2cc(-c3nnc(C(F)F)o3)cnc2CN1[C@@H]1CCCC[C@H]1NC(=O)C(F)(F)C1CC1 [Example 237] | 100 |
| O=C1c2cc(-c3nnc(C(F)F)o3)ccc2CN1c1ccccc1-c1ccccn1 [Example 238, 6-(5-(difluoromethyl)-1,3,4-oxadiazol-2-yl)-2-(2-(pyridin-2-yl)phenyl)isoindolin-1-one] | 100 |
| O=C1c2ccc(-c3nnc(C(F)F)o3)cc2C(=O)N1C[C@H]1COCCN1S(=O)(=O)C1CC1 [Example 239, 2-(((3S)-4-(cyclopropylsulfonyl)-morpholin-3-yl)methyl)-5-(5-(difluoromethyl)-1,3,4-oxadiazol-2-yl)-1H-isoindole-1,3(2H)-dione] | 99 |
| O=C1c2cc(-c3nnc(C(F)F)o3)cnc2CN1c1ccccc1Br [Example 240, 6-(2-bromophenyl)-3-(5-(difluoro-methyl)-1,3,4-oxadiazol-2-yl)-6,7-dihydro-5H-pyrrolo[3,4-b]-pyridin-5-one] | 98 |
| O=C1c2cc(-c3nnc(C(F)F)o3)ccc2CN1c1ccc(Cl)cc1Br [Example 241, 2-(2-bromo-4-chlorophenyl)-6-(5-(difluoromethyl)-1,3,4-oxadiazol-2-yl)isoindolin-1-one] | 91 |
| O=C1c2cc(-c3nnc(C(F)F)o3)cc(F)c2CN1[C@@H]1CCCC[C@H]1NS(=O)(=O)C1CC1 [Example 242, N-((1R,2R)-2-(6-(5-(difluoro-methyl)-1,3,4-oxadiazol-2-yl)-4-fluoro-1-oxo-1,3-dihydro-2H-isoindol-2-yl)cyclohexyl)-cyclopropanesulfonamide] | 101 |
| N#Cc1cccc(-c2ccccc2N2Cc3ncc(-c4nnc(C(F)F)o4)cc3C2=O)c1 [Example 243, 2′-(3-(5-(difluoromethyl)-1,3,4-oxadiazol-2-yl)-5-oxo-5,7-dihydro-6H-pyrrolo[3,4-b]pyridin-6-yl)biphenyl-3-carbonitrile] | 99 |
| O=C1c2cc(-c3nnc(C(F)F)o3)cc(F)c2CN1[C@@H]1CCCC[C@H]1NS(=O)(=O)CC(F)(F)F [Example 244] | 101 |
| O=C1c2cc(-c3nnc(C(F)F)o3)ccc2CN1[C@@H]1CCCC[C@H]1NS(=O)(=O)CC(F)(F)F [Example 245, N-((1R,2R)-2-(6-(5-(difluoro-methyl)-1,3,4-oxadiazol-2-yl)-1-oxo-1,3-dihydro-2H-isoindol-2-yl)cyclohexyl)-2,2,2-trifluoro-ethanesulfonamide] | 101 |
| O=C1c2cc(-c3nnc(C(F)F)o3)ccc2CN1[C@@H]1CCCC[C@H]1NS(=O)(=O)C1CC1 [Example 246, N-((1R,2R)-2-(6-(5-(difluoro-methyl)-1,3,4-oxadiazol-2-yl)-1-oxo-1,3-dihydro-2H-isoindol-2-yl)cyclohexyl)cyclopropane-sulfonamide] | 100 |
| O=C1c2cc(-c3nnc(C(F)F)o3)ccc2CN1c1ccc(F)cc1Br [Example 247, 2-(2-bromo-4-fluorophenyl)-6-(5-(difluoromethyl)-1,3,4-oxadiazol-2-yl)isoindolin-1-one] | 94 |
| N#Cc1cccc(-c2cc(Cl)ccc2N2Cc3ccc(-c4nnc(C(F)F)o4)cc3C2=O)c1 [Example 248, 5′-chloro-2′-(6-(5-(difluoro-methyl)-1,3,4-oxadiazol-2-yl)-1-oxo-1,3-dihydro-2H-isoindol-2-yl)biphenyl-3-carbonitrile] | 100 |
| N#Cc1cccc(-c2cc(F)ccc2N2Cc3ccc(-c4nnc(C(F)F)o4)cc3C2=O)c1 [Example 249, 2′-(6-(5-(difluoromethyl)-1,3,4-oxadiazol-2-yl)-1-oxo-1,3-dihydro-2H-isoindol-2-yl)-5′-fluorobiphenyl-3-carbonitrile] | 100 |
| Cn1cc(Br)c(N2Cc3ccc(-c4nnc(C(F)F)o4)cc3C2=O)n1 [Example 250, 2-(4-bromo-1-methyl-1H-pyrazol-3-yl)-6-(5-(difluoro-methyl)-1,3,4-oxadiazol-2-yl)isoindolin-1-one] | 95 |
| O=C1c2cc(-c3nnc(C(F)F)o3)cc(F)c2CN1C[C@H]1COCCN1S(=O)(=O)c1ccccc1F [Example 251, 6-(5-(difluoromethyl)-1,3,4-oxadiazol-2-yl)-4-fluoro-2-(((3S)-4-((2-fluorophenyl)-sulfonyl)morpholin-3-yl)-methyl)isoindolin-1-one] | 100 |
| O=C1c2cc(-c3nnc(C(F)F)o3)cc(F)c2CN1C[C@H]1COCCN1S(=O)(=O)c1ccc(F)cc1 [Example 252, 6-(5-(difluoromethyl)-1,3,4-oxadiazol-2-yl)-4-fluoro-2-(((3S)-4-((4-fluorophenyl)-sulfonyl)morpholin-3-yl)-methyl)isoindolin-1-one] | 99 |
| O=C1c2cc(-c3nnc(C(F)F)o3)ccc2CN1c1cc(Cl)ccc1Br [Example 253, 2-(2-bromo-5-chlorophenyl)-6-(5-(difluoromethyl)-1,3,4-oxadiazol-2-yl)isoindolin-1-one] | 72 |
| O=C(O[C@@H]1CCCC[C@H]1N1Cc2ccc(-c3nnc(C(F)F)o3)cc2C1=O)N1CCCCC1 [Example 254, (1R,2R)-2-(6-(5-(difluoro-methyl)-1,3,4-oxadiazol-2-yl)-1-oxo-1,3-dihydro-2H-isoindol-2-yl)cyclohexyl piperidine-1-carboxylate] | 102 |
| CC(C)(C)OC(=O)N[C@H]1CCCC[C@H]1N1Cc2ccc(-c3nnc(C(F)F)o3)cc2C1=O [Example 255, tert-butyl ((1S,2R)-2-(6-(5-(difluoromethyl)-1,3,4-oxadiazol-2-yl)-1-oxo-1,3-dihydro-2H-isoindol-2-yl)cyclohexyl)carbamate] | 100 |
| N[C@H]1CCCC[C@H]1N1Cc2ccc(-c3nnc(C(F)F)o3)cc2C1=O [Example 256] | 91 |
| O=C1c2cc(-c3nnc(C(F)F)o3)ccc2CN1[C@@H]1CCCC[C@H]1NCC(F)(F)F [Example 257, 6-(5-(difluoromethyl)-1,3,4-oxadiazol-2-yl)-2-((1R,2R)-2-((2,2,2-trifluoroethyl)amino)-cyclohexyl)isoindolin-1-one] | 101 |
